“And” between values parts separate entries of the source, which are not always exact repeats. Identical values can stand only once.
Test system: peripheral blood lymphocytes
Test: Cytokinesis-block micronucleus (CBMN) assay, NNK-treated lymphocyte cultures of lung cancer cases and controls
Format: cell-based, human
Design: Control Subjects, % with ≧5 NNK-induced MN / Control Subjects, % with 0 or 2 NNK-induced NPBs / Control Subjects, % with 3 or 5 NNK-induced NPBs / Control Subjects, % with 1 NNK-induced NBUDs: concentration or dose not given beside the values; Control Subjects, % with 3 or 4 NNK-induced MN: tested at 0.24 mM
Settings: for NNK-induced NPBs, Mean ± SE / NNK-induced NPBs, Median / NNK-induced MN, Mean ± SE / NNK-induced MN, Median / NNK-induced NBUDs, Mean ± SE / NNK-induced NBUDs, Median: Control, 0.24 mM NNK
Experimental: The CBMN test was performed using the cytochalasin B technique described by Fenech and Morley (22) and following recommendations from The International Collaborative Project on Micronucleus Frequency in Human Populations (HUMN Project) to measure MN, NPBs and NBUDs in untreated cells and NNK-treated cells (27). Duplicate lymphocyte cultures were prepared for each study subject. Each culture contained 2.0×10^6 cells in 5 mL RPMI 1640 medium supplemented with 100 U/mL penicillin, 100 μg/mL streptomycin, 10% fetal bovine serum, and 2 mM L-glutamine (Gibco-Invitrogen, Carlsbad, Calif.) and 1% phytohemagglutinin (Remel, Lenexa, Kans.). For the cultures treated with NNK, 24 hours after initiation, the PBLs were centrifuged and the supernatant growth medium was removed and reserved. The PBLs were resuspended in 5 mL of serum-free RPMI 1640 medium supplemented with 0.24 mM NNK (a dose previously used by us and others (23-26) (CAS No. 64091-91-4, National Cancer Institute, Midwest Carcinogen Repository, Kansas City, Mo.; purity>98%) and incubated at 37° C. in the presence of 5% CO2 for 2 hours.
Next, the PBLs were washed twice with serum-free RPMI 1640, transferred to clean tubes and re-incubated for […] in the reserved supernatant. At 44 hours after initiation, cells were blocked in cytokinesis by adding cytochalasin B (Sigma, St. Louis, Mo.; final concentration 4 µg/mL). Similarly, cultures for the determination of spontaneous damage (untreated cells) were handled in the same manner, with the exception of treatment with NNK. The total incubation time for all cultures was 72 hours. After incubation, the cells were fixed in 3:1 methanol:glacial acetic acid, dropped onto clean microscopic slides, air-dried and stained with Giemsa stain. For each sample, 1000 binucleated cells were scored blindly using a Nikon E-400 light optical microscope following the scoring criteria outlined by HUMN Project (2,22,27); the numbers of MN, NPBs, and NBUDs per 1000 binucleated cells were recorded. For quality control, 20% of the slides were randomly selected and blindly rescored and the results compared with the original scoring.

[1] = MN/1000 binucleated cells, 130 controls
[2] = MN/1000 binucleated cells, 139 cases
[3] = lymphocytes from patients with lung cancer vs controls
[4] = per 1000 binucleated cells, 130 controls
[5] = per 1000 binucleated cells, 139 cases

With `CN(CCCC(=O)c1cccnc1)N=O` [NNK, 4-(methylnitrosamino)-1-(3-pyridyl)-1-butanone] the “NNK-induced NPBs, Mean ± SE” value (Females) was 2.68 ± 0.19 per 1000 binucleated cells, the “NNK-induced NPBs, Median” value (Females) was 2.0 per 1000 binucleated cells and the “NNK-induced MN, Mean ± SE” value (History of Alcohol Use No) was 2.54 ± 0.15 per 1000 binucleated cells. The “NNK-induced MN, Median” value (History of Alcohol Use No) was 3.00 per 1000 binucleated cells, the “NNK-induced NBUDs, Mean ± SE” value (History of Alcohol Use No) was 0.14 ± 0.04 per 1000 binucleated cells and the “NNK-induced NBUDs, Median” value (History of Alcohol Use No) was 0.00 per 1000 binucleated cells. The “NNK-induced NPBs, Mean ± SE” value (History of Alcohol Use No) was 2.40 ± 0.13 per 1000 binucleated cells, the “NNK-induced NPBs, Median” value (History of Alcohol Use No) was 2.00 per 1000 binucleated cells and the “NNK-induced MN, Mean ± SE” value (History of Alcohol Use Yes) was 2.61 ± 0.15 per 1000 binucleated cells. The “NNK-induced MN, Median” value (History of Alcohol Use Yes) was 2.00 per 1000 binucleated cells, the “NNK-induced NBUDs, Mean ± SE” value (History of Alcohol Use Yes) was 0.11 ± 0.04 per 1000 binucleated cells and the “NNK-induced NBUDs, Median” value (History of Alcohol Use Yes) was 0.00 per 1000 binucleated cells. The “NNK-induced NPBs, Mean ± SE” value (History of Alcohol Use Yes) was 2.32 ± 0.12 per 1000 binucleated cells, the “NNK-induced NPBs, Median” value (History of Alcohol Use Yes) was 2.00 per 1000 binucleated cells and the “NNK-induced MN, Mean ± SE” value (Males) was 2.63 ± 0.11 per 1000 binucleated cells. The “NNK-induced MN, Median” value (Males) was 3.0 per 1000 binucleated cells, the “NNK-induced NBUDs, Mean ± SE” value (Males) was 0.12 ± 0.03 per 1000 binucleated cells and the “NNK-induced NBUDs, Median” value (Males) was 0.0 per 1000 binucleated cells. The “NNK-induced NPBs, Mean ± SE” value (Males) was 2.27 ± 0.10 per 1000 binucleated cells, the “NNK-induced NPBs, Median” value (Males) was 2.0 per 1000 binucleated cells and the “NNK-induced MN, Mean ± SE” value (Overall) was 2.62±0.10 per 1000 binucleated cells and 2.62 ± 0.1 per 1000 binucleated cells. The “NNK-induced MN, Median” value (Overall) was 3.0 per 1000 binucleated cells and 3 per 1000 binucleated cells, the “NNK-induced NBUDs, Mean ± SE” value (Overall) was 0.12±0.03 per 1000 binucleated cells and the “NNK-induced NBUDs, Median” value (Overall) was 0.0 per 1000 binucleated cells and 0 per 1000 binucleated cells. The “NNK-induced NPBs, Mean ± SE” value (Overall) was 2.38±0.09 per 1000 binucleated cells, the “NNK-induced NPBs, Median” value (Overall) was 2.0 per 1000 binucleated cells and 2 per 1000 binucleated cells and the “NNK-induced MN, Mean ± SE” value (Years smoked > 32) was 2.69 ± 0.12 per 1000 binucleated cells. For the same compound, the “NNK-induced MN, Median” value (Years smoked > 32) was 3.0 per 1000 binucleated cells, the “NNK-induced NBUDs, Mean ± SE” value (Years smoked > 32) was 0.13 ± 0.04 per 1000 binucleated cells and the “NNK-induced NBUDs, Median” value (Years smoked > 32) was 0.0 per 1000 binucleated cells. For the same compound, the “NNK-induced NPBs, Mean ± SE” value (Years smoked > 32) was 2.39 ± 0.09 per 1000 binucleated cells, the “NNK-induced NPBs, Median” value (Years smoked > 32) was 2.0 per 1000 binucleated cells and the “NNK-induced MN, Mean ± SE” value (Years smoked ≦ 32) was 2.33 ± 1.02 per 1000 binucleated cells. The “NNK-induced MN, Median” value (Years smoked ≦ 32) was 2.0 per 1000 binucleated cells, the “NNK-induced NBUDs, Mean ± SE” value (Years smoked ≦ 32) was 0.06 ± 0.04 per 1000 binucleated cells and the “NNK-induced NBUDs, Median” value (Years smoked ≦ 32) was 0.0 per 1000 binucleated cells. For the same compound, the “NNK-induced NPBs, Mean ± SE” value (Years smoked ≦ 32) was 2.36 ± 0.19 per 1000 binucleated cells, the “NNK-induced NPBs, Median” value (Years smoked ≦ 32) was 2.0 per 1000 binucleated cells and the “Control Subjects, % with 1 or 2 NNK-induced MN” value [1] was 49% and 49.2%. For the same compound, the “Control Subjects, % with 3 or 4 NNK-induced MN” value [1] was 44.6%, the “Control Subjects, % with ≧5 NNK-induced MN” value [1] was 6% and 6.2% and the “Control Subjects, No. with 1 or 2 NNK-induced MN” value [1] was 64. For the same compound, the “Control Subjects, No. with 3 or 4 NNK-induced MN” value [1] was 58, the “Control Subjects, No. with ≧5 NNK-induced MN” value [1] was 8 and the “Case Patients, % with 1 or 2 NNK-induced MN” value [2] was 4% and 3.6%. For the same compound, the “Case Patients, % with 3 or 4 NNK-induced MN” value [2] was 56.1%, the “Case Patients, No. with 1 or 2 NNK-induced MN” value [2] was 5 and the “Case Patients, No. with 3 or 4 NNK-induced MN” value [2] was 78. The “Case Patients, No. with ≧5 NNK-induced MN” value [2] was 56, the “Increase in NNK-induced MN frequency, lung cancer patients over controls” value [3] was 1.6 fold and the “Increase in NNK-induced NBUD frequency, lung cancer patients over controls” value [3] was 8.9 fold. The “Increase in NNK-induced NPB frequency, lung cancer patients over controls” value [3] was 3.4 fold, the “Control Subjects, % with 0 NNK-induced NBUDs” value [4] was 87% and 86.9% and the “Control Subjects, % with 0 or 2 NNK-induced NPBs” value [4] was 65% and 64.6%. For the same compound, the “Control Subjects, % with 1 NNK-induced NBUDs” value [4] was 11.5%, the “Control Subjects, % with 3 or 5 NNK-induced NPBs” value [4] was 35.4% and the “Control Subjects, No. with 0 NNK-induced NBUDs” value [4] was 113. The “Control Subjects, No. with 0 or 2 NNK-induced NPBs” value [4] was 84, the “Control Subjects, No. with 1 NNK-induced NBUDs” value [4] was 15 and the “Control Subjects, No. with 3 or 5 NNK-induced NPBs” value [4] was 46. The “Control Subjects, No. with ≧2 NNK-induced NBUDs” value [4] was 2, the “Control Subjects, No. with ≧6 NNK-induced NPBs” value [4] was 0 and the “Case Patients, % with 0 NNK-induced NBUDs” value [5] was 35% and 34.5%. The “Case Patients, % with 1 NNK-induced NBUDs” value [5] was 42.5%, the “Case Patients, % with 3 or 5 NNK-induced NPBs” value [5] was 10.8% and the “Case Patients, No. with 0 NNK-induced NBUDs” value [5] was 48. For the same compound, the “Case Patients, No. with 0 or 2 NNK-induced NPBs” value [5] was 0, the “Case Patients, No. with 1 NNK-induced NBUDs” value [5] was 59 and the “Case Patients, No. with 3 or 5 NNK-induced NPBs” value [5] was 15. For the same compound, the “Case Patients, No. with ≧2 NNK-induced NBUDs” value [5] was 32 and the “Case Patients, No. with ≧6 NNK-induced NPBs” value [5] was 124.

Reference: patent US8394592B2, “Methods for assessing cancer susceptibility to carcinogens in tobacco products” (The Board of Regents of the University of Texas System, priority 2006, dated 2013)
